# In US11192849B2, “Compounds, compositions, and methods for modulating ferroptosis and treating excitotoxic disorders” (THE TRUSTEES OF COLUMBIA UNIVERSITY IN THE CITY OF NEW YORK, priority 2013, dated 2021):
# How the values were obtained:
# [1] = tested on: HT-1080 cells; assay: Mitochondrial cardiolipin peroxidation (10-N-nonylacridine orange) in HT-1080 cells; format: cell-based, human; details: STS 100 nM, NAO probe
# Method: 200,000 HT-1080 cells were seeded into 6-well dishes (Corning). […] For the analysis of mitochondrial ROS, cells were incubated with 5 μM MitoSOX (Molecular Probes/Invitrogen) in HBSS for 10 minutes in the dark at 37° C. For the analysis of mitochondrial cardiolipin peroxidation, cells were incubated with NAO dissolved to a final concentration of 25 ng/mL in HBSS for 10 minutes in the dark at 37° C. Cells were then washed once in HBSS and measurements were subsequently acquired using an flow cytometer (BD/Accuri C6) equipped with a 488 nm laser for excitation of fluorophores. MitoSOX data were collected in the FL2 channel and NAO data was collected in the FL1 channel. Data are from three independent biological replicates of each experiment. Data were analyzed by one-way ANOVA with Bonferroni's post-hoc test.
# [2] = tested on: C57BL/6 mice, kidney ischemia-reperfusion injury; assay: Kidney model of ischemia-reperfusion injury (IRI); format: in vivo
# Method: As an initial in vivo study, the effects of Fer-1 and SRS16-86 on serum creatinine, a marker of kidney damage, were evaluated in an ischemia reperfusion injury (IRI) model of kidney failure (FIG. 21).
# Organs were dissected as indicated in each experiment and infused with 4% (vol/vol) neutral-buffered formaldehyde, fixated for 48 h, dehydrated in a graded ethanol series and xylene, and finally embedded in paraffin. Stained sections were analyzed using an Axio Imager microscope (Zeiss). Kidney damage was quantified by two experienced pathologists in a double-blind manner on a scale ranging from 0 (unaffected tissue) to 10 (severe organ damage). The following parameters were chosen as indicative of morphological damage to the kidney after ischemia-reperfusion injury (IRI): brush border loss, red blood cell extravasation, tubule dilatation, tubule degeneration, tubule necrosis, and tubular cast formation. These parameters were evaluated on a scale of 0-10, which ranged from not present (0), mild (1-4), moderate (5 or 6), severe (7 or 8), to very severe (9 or 10). Each parameter was determined on at least four different animals.
# Induction of kidney IRI was performed via a midline abdominal incision and a bilateral renal pedicle clamping for either 40 min (severe IRI, or “lethal-to-WT” IRI) or 50 min (ultra-severe IRI) using microaneurysm clamps (Aesculab). Throughout the surgical procedure, the body temperature was maintained between 36° C. and 37° C. by continuous monitoring using a temperature-controlled self-regulated heating system (Fine Science Tools). After removal of the clamps, reperfusion of the kidneys was confirmed visually. The abdomen was closed in two layers using standard 6-0 sutures. Sham-operated mice underwent the identical surgical procedures, except that microaneurysm clamps were not applied. To maintain fluid balance, all of the mice were supplemented with 1 mL of prewarmed PBS administered intraperitoneally directly after surgery. All mice were killed 48 h after reperfusion for each experiment. […] All ischemia-reperfusion experiments were performed in a double-blinded manner.
smiles,measurement,setting,value
"CCOC(=O)c1ccc(NC2CCCCC2)c(N)c1 [SRS8-28 (Fer-1), ethyl 3-amino-4-(cyclohexylamino)benzoate]",mitochondrial cardiolipin oxidation in response to staurosporine,[1],did not prevent
same,serum creatinine in IRI model of kidney failure,[2]; 2 mg/kg IP 30 minutes prior to induction of IRI,effective
same,functional acute renal failure and structural organ damage after severe IRI,"[2]; 40 min ischemia, 48 h after reperfusion, 2 mg/kg i.p.",protected from functional acute renal failure
